In patent US20230251277A1, “METHOD FOR DETERMINING THE LEVEL OF VITAMIN D AND METABOLITES THEREOF” (Roche Diagnostics Operations, Inc., priority 2020, published 2023):
Values after ≈ are worked out from the molar mass of the structure shown. “Also recorded” adds a separate entry of the source.

Experiments:
[1] = physchem; settings: aqueous with cosolvent or surfactant or cyclodextrin
[2] = target: T1, Vitamin D binding protein (Homo sapiens, UniProt P02774); test: Screening of releasing reagent candidates: recovery of Vitamin D metabolites from spiked native serum pool (immunobead capture, LC-MS/MS); format: biochemical; design: native serum pool and homogenized; from tissue; host or cells: native serum pool (spiked with vitamin D metabolites); settings: 45 µl pretreatment reagent at the concentration of the 1st table
T1 sequence (P02774 17-474): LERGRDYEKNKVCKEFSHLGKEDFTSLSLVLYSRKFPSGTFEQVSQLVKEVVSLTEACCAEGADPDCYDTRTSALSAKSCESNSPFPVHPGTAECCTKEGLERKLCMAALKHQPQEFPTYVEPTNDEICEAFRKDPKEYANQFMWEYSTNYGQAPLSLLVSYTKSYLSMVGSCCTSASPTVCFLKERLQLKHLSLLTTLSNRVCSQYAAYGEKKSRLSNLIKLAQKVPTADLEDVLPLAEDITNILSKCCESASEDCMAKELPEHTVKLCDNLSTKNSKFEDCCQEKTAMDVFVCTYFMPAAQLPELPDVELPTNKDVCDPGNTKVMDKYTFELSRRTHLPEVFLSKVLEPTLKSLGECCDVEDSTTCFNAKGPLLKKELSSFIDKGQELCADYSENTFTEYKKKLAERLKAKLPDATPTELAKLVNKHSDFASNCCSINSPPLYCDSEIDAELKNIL
Method: 0.30 ml di-OH Vitamin D stock solution ([…] 24R,25-di-OH Vitamin D3 and […] 24R,25-di-OH Vitamin D2 in methanol) and 0.55 ml mono-OH Vitamin D stock solution (10.00 µg/ml 25-OH Vitamin D3 and 10.00 µg/ml 25-OH Vitamin D2 in methanol) are added to 99.1 5 ml native serum pool and homogenized. Thus resulting concentrations in the spiked pool are: • 3.9 ng/ml 24R,25-di-OH Vitamin D3 • 6.0 ng/ml 24R,25-di-OH Vitamin D2 • 55.0 ng/ml 25-OH Vitamin D2 • 84.9 ng/ml 25-OH Vitamin D3 Endogenous amounts in the original native serum pool are taken into account.
Molar concentrations of the evaluated chemicals are:
10 µl Vitamin D free serum (representing ISTD dummy) are pipetted to 145 µl sample in a plastic vessel. After incubation with periodic shaking for 231 s at 37° C., 45 µl pretreatment reagent are added. Again, an incubation with periodic shaking for 640 s at 37° C. takes place. Therefore Vitamin D should be or is gently released from Vitamin D binding protein. In the next step 50 µl immunobead suspension are pipetted to the mixture. Again, an incubation with periodic shaking for 393 s at 37℃ takes place. After twofold bead wash using 0.01 M PBS and magnetic separation, 60 µl of the elution reagent water/methanol 2/8 (v/v) are added and a 40 s incubation period takes place. It is possible to transfer 40 µl supernatant in a HPLC glass vial while 20 µl have to remain in the vessel to avoid the carry-over of beads into the supernatant. In the final step 40 µl internal standard working solution are added to the supernatant and homogenized by means of sip and spit pipetting technique.
HPLC-MS/MS analysis is performed using a 1290 infinity Multisampler and a 1290 Inifinity LC System (Agilent Technologies, Santa Clara/USA) coupled to a Triple Quad 6500+ MS (Sciex, Darmstadt).
40 µl of each sample are injected on the analytical C18 column (50×2.1 mm, 2.6 µm, Hitachi, Tokio/Japan) in order to separate the analytes. This is realized with a flow rate of 1.0 ml/min and at a column temperature of 50° C. Separation of the analytes is achieved with the following gradient of 50 mM formic acid (A) and methanol (B): • 0.00 min: 80% […] • 0.70 min: 90% B • 0.75 min: 98% B • 1.70 min: 98% B • 1.80 min: 80% B • 2.40 min: 80% B
The coupled MS detector is operating in positive electrospray ionisation (ESI) mode. The Vitamin D analytes are detected using multi reaction monitoring (MRM) technique. Doing this two periods are applied: 0.00-0.60 min for measurement of 24R,25-di-OH Vitamin D2/D3 and 0.60-2.40 min for the detection of 25-OH Vitamin
Calibration is performed by means of LC-MS/MS of Vitamin D standards in solvent (60% MeOH) containing internal standards as concentrated as in the processed samples. For example, calibration levels for 25-OH Vitamin D3 are 2, 5, 10, 25, 50 and 100 ng/ml, while the concentration of 25-OH Vitamin D3 13C5 is set to 30 ng/ml.
Due to the fact that internal standard concentrations are identical both in calibrators and processed samples, it is possible to calculate recoveries for each analyte with the formula: […]
The results are shown in FIGS. 2 to 5 show the recovery of the releasing reagent candidates for 25-OH Vitamin D3 (FIG. 2), 25-OH Vitamin D2 (FIG. 3), 24R25-di-OH Vitamin D3 (FIG. 4) and 24R25-di-OH Vitamin D2 (FIG. 5).
Each error bar in FIGS. 2 and 5 is constructed using the min and the max. of the data.

[3] = Dynamic viscosity of the releasing reagent solution; format: physicochemical
[4] = target: T1, Vitamin D binding protein; test: Pretreatment optimization (design of experiments): 25-OH Vitamin D3 area ratio / analyte recovery in serum, plasma, Vitamin D free serum

Compound	solubility [1] [mM]	recovery of Vitamin D metabolites (25-OH D3, 25-OH D2, 24R,25-di-OH D3, 24R,25-di-OH D2) ([2]; FIGS. 2 to 5)	other results
O=C([O-])c1ccccc1O.[Na+] [PT1, Sodium Salicylate, reference compound]	5600	Highest recoveries	dynamic viscosity ([3]; at 6° C. for 5.6 M solution in 0.01 M PBS/methanol 9/1): 23 mPas; dynamic viscosity ([3]; at 6° C., (pre)treatment containing 5.6 M (PT1)): 23 mPa·s
N.O=C(O)c1ccccc1O [PT2, Ammonium Salicylate]	5600	Highest recoveries	
O=C(OCCO)c1ccccc1O [PT3, Ethylen glycol monosalicylate]	50 (≈ 9110 µg/mL)		
O=C(O)c1ccc(O)c(C(=O)O)c1 [PT4, 4-Hydroxyisophthalic acid]	1 (≈ 182 µg/mL)		
O=C(O)c1cccc(O)c1 [PT5, 3-Hydroxybenzoic acid]	50 (≈ 6910 µg/mL)	Highest recoveries	
Cc1ccc(C(=O)O)c(O)c1 [PT6, 4-Methylsalicylic acid]	20 (≈ 3040 µg/mL)		
O=C(O)c1ccc(O)cc1O [PT7, 2,4-Dihydroxybenzoic acid]	50 (≈ 7710 µg/mL)	Highest recoveries	
COC(=O)c1ccc(O)cc1.[Na] [PT8, Methylparaben Sodium]		Lowest recoveries	
COc1ccccc1C(=O)O [PT9, 2-Methoxy-benzoic acid]	30 (≈ 4560 µg/mL)		
CC(=O)Oc1ccccc1C(=O)O [PT10, Aspirin, reference compound]	10 (≈ 1800 µg/mL)		
O=C(O)c1cc(/N=N/c2ccc(S(=O)(=O)Nc3ccccn3)cc2)ccc1O [PT11, Sulfasalazine, reference compound]	9 (≈ 3590 µg/mL)		
O=C(O)c1ccccc1O [PT12, Salicylic acid, reference compound]	30 (≈ 4140 µg/mL)		
Cc1ccc(O)c(C(=O)O)c1 [PT13, 2-Hydroxy-5-methylbenzoic acid]	10 (≈ 1520 µg/mL)		
COC(=O)c1ccc(O)cc1 [PT14, Methyl-4-hydroxybenzoate]		Lowest recoveries	
Cc1cccc(C(=O)O)c1O [PT15, 3-Methylsalicylic acid]	10 (≈ 1520 µg/mL)		
COC(=O)c1ccccc1O [PT16, Methyl Salicylate, reference compound]	10 (≈ 1520 µg/mL)		
O=C(Oc1ccccc1)c1ccccc1O [PT17, Phenyl Salicylate]	0.9 (≈ 193 µg/mL)		
O=C(O)c1cc(-c2ccc(F)cc2F)ccc1O [PT18, Diflunisal, reference compound]	0.4 (≈ 100 µg/mL)		
CCOC(=O)c1cc(OCC)ccc1O [PT19, Ethyl-5-ethoxy-2-hydroxybenzoate]	4 (≈ 841 µg/mL)		
O=C([O-])c1cccc(O)c1.[Na+] [PT20, 3-Hydroxybenzoic acid sodium salt]	2800	Highest recoveries	
Cc1cccc(C(=O)[O-])c1O.[Na+] [PT21, 3-Methyl Salicylic acid Sodium salt]			recovery of Vitamin D metabolites (25-OH D3, 25-OH D2, 24R,25-di-OH D3, 24R,25-di-OH D2) ([2]; FIGS. 2 to 5, Sodium salt): Highest recoveries; also recorded: highest analyte recovery; recovery of Vitamin D metabolites (25-OH D3, 25-OH D2, 24R,25-di-OH D3, 24R,25-di-OH D2) ([2]; FIGS. 2 to 5, listed as 3-methylsalicylic acid sodium salt, Sodium salt): highest analyte recovery; dynamic viscosity ([3]; at 6° C., 2.3 M dissolved in 35/65 MeOH/0.01 M PBS (v/v)): 8.3 mPa·s; Vitamin D release in a patient serum sample ([4]; 450 mM formic acid/0.7 M versus 0 mM formic acid/2.3 M): comparable Vitamin D release; analyte recovery compared with 5.6 M Salicylic acid sodium salt (PT1) ([4]; optimized pretreatment: 2.3 M, 35/65 (v/v) methanol/0.01 M PBS, 0% FA, Sodium salt): comparable to the recovery with salicylic acid sodium salt
O=C(O)c1ccc(C(F)(F)F)cc1O [PT22, 2-Hydroxy-4-trifluoromethylbenzoic acid]	6 (≈ 1240 µg/mL)		
